Test results: patent US5888978A, “Method for reducing the severity of gastro-intestinal damage” (Trega Biosciences, Inc., priority 1995, dated 1999)

Tested on: indomethacin treated rats
Test: indomethacin-induced GI damage in rats (diarrhea and survival)
Assay type: in vivo, Harlan Sprague-Dawley rats
Conditions: Ind-CRA-1 group
Description: As disclosed herein, administration of a CRA reduced the severity of GI damage in indomethacin treated rats. The effect of indomethacin administration on GI damage to rats is a well recognized model for studying the efficacy of agents that can affect GI damage (see, for example, Perkins et al., J. Pharmacol. Expt. Ther. 269:151-156 (1994)). In the model system used in the experiments described in Example I, the appearance of diarrhea and animal survival were determined following administration of indomethacin, alone, or with concurrent treatment using a cytokine regulatory agent.
The CRA, Ac-Nle-Gln-His-(D)Phe-Arg-(D)Trp-Gly-NH2 (CRA-1), was prepared as described (U.S. Pat. No. 5,420,109, supra, 1995). Adult male Harlan Sprague-Dawley rats (325-425 g) were divided into four groups (6 rats/group). Rats were weighed every morning and food was removed prior to receiving any treatment. Two groups of rats were pretreated by intraperitoneal (ip) injection of sterile saline, alone ("control"), and the remaining two groups were pretreated by ip injection of CRA-1 (100 μg/kg in saline). Pretreatment injections were administered between 8:00-9:00 am.
One hr following the pretreatment, one group of control rats was injected ip, on the side opposite the initial injection, with saline (Sal-control) and the other control group was injected with indomethacin (Ind-control; 10 mg/kg in saline, adjusted to pH 7.5-8.5 with NaOH). Similarly, the two groups of CRA-1 treated rats received either saline (Sal-CRA-1) or indomethacin (Ind-CRA-1). At 8 hr and 16 hr after the pretreatment, control rats and CRA-1 rats were administered saline or CRA-1, respectively. Food was returned to the rats after the 8 hr injection. This protocol was repeated for 7 days.

Compound: CCCC[C@H](NC(C)=O)C(=O)N[C@@H](CCC(N)=O)C(=O)N[C@@H](Cc1c[nH]cn1)C(=O)N[C@H](Cc1ccccc1)C(=O)N[C@@H](CCCNC(=N)N)C(=O)N[C@H](Cc1c[nH]c2ccccc12)C(=O)NCC(N)=O [CRA-1, Ac-Nle-Gln-His-(D)Phe-Arg-(D)Trp-Gly-NH2]
- surviving rats with diarrhea by day 7 (2 of the surviving 5 rats, CRA-1 100 μg/kg ip plus indomethacin 10 mg/kg ip, all 3 surviving Ind-saline rats had diarrhea): 40%
- surviving rats with diarrhea by day 8 (3/5, CRA-1 100 μg/kg ip plus indomethacin 10 mg/kg ip): 60%
- survival by day 8 (5/6, CRA-1 100 μg/kg ip plus indomethacin 10 mg/kg ip, Ind-saline control 66.7% lethality): 83.3%
- rats with diarrhea at day 4 (6 rats, CRA-1 100 μg/kg ip (pretreatment, 8 hr and 16 hr) plus indomethacin 10 mg/kg ip daily, Ind-saline control 5 of 6 (83.3%)): none
- rats that had died by day 7 (CRA-1 100 μg/kg ip plus indomethacin 10 mg/kg ip daily for 7 days, Ind-saline control 3 of 6 died): 1 of the 6
